Results as given in ChEMBL document CHEMBL1126543, “1,24S-dihydroxy-26,27-cyclo-22-yne-vitamin D3: the side chain triple bond analogue of MC 903 (calcipotriol)” (Bioorg Med Chem Lett, 1993).
Active and inactive are the calls of the source. The calls are words filed in the database; no cut-off is given here.

Legend:
[1] = tested on: Rattus norvegicus; assay: Tested for the effect on calcium homeostasis in rats dosed up to 100 ug/kg daily for 7 days; Compound was found to show no effect; format: functional, organism-based
[2] = tested on: Rattus norvegicus; assay: Tested for the hypercalciuria effect at 0.5 ug/kg by 1,25-(OH)2D3 for 7 days up to 100 ug/kg; compound produced marked hypercalciuria at 0.5 ug/kg; format: functional, organism-based

## C=C1/C(=C\C=C2/CCC[C@]3(C)[C@@H]([C@H](C)C#C[C@@H](O)C4CC4)CC[C@@H]23)C[C@@H](O)C[C@@H]1O
[1]
  Activity: inactive
[2]
  Activity: Marked hypercalciuria at 0.5 ug/kg
